How the values were obtained:
[1] = system: TMZ sensitive (U251) cells; test: Colony forming assay, TMZ sensitive U251 cells; type: cell-based, human; settings: TMZ sensitive U251 cells
Experimental: (§1) Colony forming assays were carried out after cells were treated with TMZ alone, POH alone, and the TMZ-POH conjugate. […] Cancer Lett. 2011 Mar. 28; 302(2):100-8.

[2] = system: TMZ resistant (U251TR) U251 cells; test: Colony forming assay, TMZ resistant U251TR cells; type: cell-based, human
Experimental: as §1

[3] = system: follistatin, α6β4 integrin, Yap1; test: Staining of the skin for follistatin, α6β4 integrin and Yap1; type: in vivo
Excerpt: Activins are members of the transforming growth factor-β family of growth and differentiation factors. The biological activity of activins is regulated by the secreted glycoprotein follistatin, which sequesters activins and thus inhibits their biological activities. Follistatin controls keratinocyte proliferation in skin wounds. Most importantly, it has been shown that limited activation of activin in keratinocytes is beneficial for the wound healing process. FIGS. 27A-C show the staining of the skin with activation of follistatin with POH-LA conjugate (FIG. 27A), POH, (FIG. 27B), and Linoleic Acid (FIG. 27C).
FIGS. 27D-F show the staining of the skin with activation of α6β4 integrin with POH-LA conjugate (FIG. 27D), POH, (FIG. 27E), and Linoleic Acid (FIG. 27F).
Yap1 is a critical modulator of epidermal stem cell proliferation and tissue expansion. α-catenin controls Yap1 activity and phosphorylation by modulating its interaction with 14-3-3 and the PP2A phosphatase. This aids in the identification of Yap1 as a determinant of the proliferative capacity of epidermal stem cells and as an important effector of a “crowd control” molecular circuitry in mammalian skin. FIGS. 27G-I show the staining of the skin with activation of Yap1 with POH-LA conjugate (FIG. 27G), POH, (FIG. 27H), and Linoleic Acid (FIG. 27I).

[4] = system: cyclobutane pyrimidine dimers (CPD) and pyrimidine (6-4) pyrimidone photoproducts (6-4PP); test: DNA damage (6-4PP and CPD) in UV exposed mouse skin; type: in vivo; settings: skin DNA following UV exposure
Excerpt: FIGS. 26A and 26B show the DNA damage that occurs following UV exposure with and without POH-LA conjugate treatment. Upon euthanasia of animals, skin tissues were collected from the back of the animals, fixed in formalin, and processed for analysis. Absorption of ultraviolet (UV) light produces two predominant types of DNA damage, cyclobutane pyrimidine dimers (CPD) and pyrimidine (6-4) pyrimidone photoproducts (6-4PP). UV DNA Damage standards for comparison to UV exposed mouse skin extracted DNA were used. Both the standard and sample DNA are first heat denatured before they are adsorbed onto a 96-well DNA high-binding plate. The 6-4PP (FIG. 26A) and CPDs (FIG. 26B) present in the sample or standard are probed with an anti6-4PP or CPD antibody, followed by an HRP conjugated secondary antibody. The 6-4PP or CPD content in an unknown sample is determined by comparing with a standard curve that is prepared from predetermined CPD-DNA standards 1,000-1.56 ng/ml). […] The skin has important barrier, sensory, and immune functions, contributing to the health and integrity of the organism. […]
FIGS. 26A and 26B show the DNA damage that occurs following UV exposure with and without POH-LA conjugate treatment. […] The 6-4PP or CPD content in an unknown sample is determined by comparing with a standard curve that is prepared from predetermined CPD-DNA standards 1,000-1.56 ng/ml).

SMILES | cytotoxicity (colony forming assay) [1] | cytotoxicity (colony forming assay) [2] | activation of cellular proteins [3] | skin regeneration via stem cell activation [3] | DNA damage (6-4PP and CPD content) [4]
C=C(C)[C@@H]1CC=C(CO)CC1 [POH, perillyl alcohol] | demonstrated cytotoxicity | demonstrated cytotoxicity |  |  | 
C=C(C)[C@@H]1CC=C(COC(=O)CCCCCCC/C=C\C/C=C\CCCCC)CC1 [POH-LA conjugate, Octadeca-9,12-dienoic acid 4-isopropenyl-cyclohex-1-enylmethyl ester] |  |  | enhance the activation of cellular proteins | stimulate skin regeneration via stem cell activation | less DNA damage

Source: patent publication US20240197891A1, “PHARMACEUTICAL COMPOSITIONS COMPRISING POH DERIVATIVES” (UNIVERSITY OF SOUTHERN CALIFORNIA, priority 2021, published 2024)
